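Following 48 hours of exposure in 96-well plates, responses at five concentrations were used to interpolate endpoints linearly. GI50 marks 50% less growth.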 Activity calls are given as the source filed them. Cut-off read from the data, not from the text of the source: active = GI50 up to about 1.1 µM and inactive = higher.
Legend:
Test in all cases: inhibition of tumour cell growth, NCI panel, 48 h
CCRF-CEM = system: CCRF-CEM
SNB-19 = system: SNB-19
DMS-114 = system: DMS-114
HOP-62 = system: HOP-62
UACC-62 = system: UACC-62
DMS-273 = system: DMS-273
786-0 = system: 786-0
UO-31 = system: UO-31
KM-20L2 = system: KM-20L2
SF-268 = system: SF-268
OVCAR-8 = system: OVCAR-8
HOP-92 = system: HOP-92
NCI-H460 = system: NCI-H460
HCT-116 = system: HCT-116
SNB-78 = system: SNB-78
EKVX = system: EKVX
DLD-1 = system: DLD-1
LOX IMVI = system: LOX IMVI
RXF 393 = system: RXF 393
TK-10 = system: TK-10
K562 = system: K562
NCI-H23 = system: NCI-H23
Malme-3M = system: Malme-3M
M14 = system: M14
HCC 2998 = system: HCC 2998
SR = system: SR
HL-60 = system: HL-60
CAKI-1 = system: CAKI-1
NCI-H226 = system: NCI-H226
SF-539 = system: SF-539
A498 = system: A498
RPMI-8226 = system: RPMI-8226
MOLT-4 = system: MOLT-4
SN12C = system: SN12C
HCT-15 = system: HCT-15
A549 = system: A549
KM12 = system: KM12
LXFL 529 = system: LXFL 529
M19-MEL = system: M19-MEL
SK-OV-3 = system: SK-OV-3
OVCAR-5 = system: OVCAR-5
HT-29 = system: HT-29
SK-MEL-2 = system: SK-MEL-2
SW-620 = system: SW-620
OVCAR-3 = system: OVCAR-3
COLO 205 = system: COLO 205
UACC-257 = system: UACC-257
U-251 = system: U-251
SF-295 = system: SF-295
ACHN = system: ACHN
NCI-H522 = system: NCI-H522
OVCAR-4 = system: OVCAR-4

**Q.** `O=C(Nc1cc(Cl)c(Cl)cc1Cl)C(=O)C(C(=O)c1ccc(Cl)c(Cl)c1)C1OC(=O)c2ccccc21` (configuration not stated) was tested. Which GI50 (CCRF-CEM) did it give?
**A.** 5.35 µM (inactive)

**Q.** And the GI50 (SNB-19)?
**A.** 15.5 µM (inactive)

**Q.** What about the GI50 (DMS-114) of the same compound?
**A.** 13.7 µM (inactive)

**Q.** And the GI50 (HOP-62)?
**A.** 12.6 µM (inactive)

**Q.** What about the GI50 (UACC-62) of the same compound?
**A.** 16.1 µM (inactive)

**Q.** And the GI50 (DMS-273)?
**A.** 16.9 µM (inactive)

**Q.** What about the GI50 (786-0) of the same compound?
**A.** 13.4 µM (inactive)

**Q.** And the GI50 (UO-31)?
**A.** 16.8 µM (inactive)

**Q.** What about the GI50 (KM-20L2) of the same compound?
**A.** 17.7 µM (inactive)

**Q.** What about the GI50 (SF-268) of the same compound?
**A.** 15.7 µM (inactive)

**Q.** What about the GI50 (OVCAR-8) of the same compound?
**A.** 10.7 µM (inactive)

**Q.** And the GI50 (HOP-92)?
**A.** 11 µM (inactive)

**Q.** What about the GI50 (NCI-H460) of the same compound?
**A.** 3.07 µM (inactive)

**Q.** What about the GI50 (HCT-116) of the same compound?
**A.** 15.1 µM (inactive)

**Q.** And the GI50 (SNB-78)?
**A.** 31.8 µM (inactive)

**Q.** And the GI50 (EKVX)?
**A.** 19.6 µM (inactive)

**Q.** What about the GI50 (DLD-1) of the same compound?
**A.** 8.47 µM (inactive)

**Q.** What about the GI50 (LOX IMVI) of the same compound?
**A.** 16.4 µM (inactive)

**Q.** And the GI50 (RXF 393)?
**A.** 8.3 µM (inactive)

**Q.** And the GI50 (TK-10)?
**A.** 26.1 µM (inactive)

**Q.** And the GI50 (K562)?
**A.** 4.2 µM (inactive)

**Q.** And the GI50 (NCI-H23)?
**A.** > 10 µM (inactive)

**Q.** And the GI50 (Malme-3M)?
**A.** > 10 µM (inactive)

**Q.** What about the GI50 (M14) of the same compound?
**A.** 13.5 µM (inactive)

**Q.** What about the GI50 (HCC 2998) of the same compound?
**A.** 18.8 µM (inactive)

**Q.** And the GI50 (SR)?
**A.** 4.39 µM (inactive)

**Q.** And the GI50 (HL-60)?
**A.** 18 µM (inactive)

**Q.** What about the GI50 (CAKI-1) of the same compound?
**A.** 16.1 µM (inactive)

**Q.** And the GI50 (NCI-H226)?
**A.** 7.45 µM (inactive)

**Q.** And the GI50 (SF-539)?
**A.** 2.67 µM (inactive)

**Q.** What about the GI50 (A498) of the same compound?
**A.** 17.2 µM (inactive)

**Q.** And the GI50 (RPMI-8226)?
**A.** 15.6 µM (inactive)

**Q.** And the GI50 (MOLT-4)?
**A.** 0.187 µM (active)

**Q.** And the GI50 (SN12C)?
**A.** 21.6 µM (inactive)

**Q.** What about the GI50 (HCT-15) of the same compound?
**A.** 19.6 µM

**Q.** And the GI50 (A549)?
**A.** 28.7 µM (inactive)

**Q.** And the GI50 (KM12)?
**A.** 16.6 µM (inactive)

**Q.** And the GI50 (LXFL 529)?
**A.** 10.9 µM (inactive)

**Q.** And the GI50 (M19-MEL)?
**A.** 17.6 µM (inactive)

**Q.** What about the GI50 (SK-OV-3) of the same compound?
**A.** 26.1 µM (inactive)

**Q.** What about the GI50 (OVCAR-5) of the same compound?
**A.** 11.1 µM (inactive)

**Q.** And the GI50 (HT-29)?
**A.** 18.5 µM (inactive)

**Q.** And the GI50 (SK-MEL-2)?
**A.** 14 µM (inactive)

**Q.** And the GI50 (SW-620)?
**A.** 15.6 µM (inactive)

**Q.** What about the GI50 (OVCAR-3) of the same compound?
**A.** 13.7 µM (inactive)

**Q.** And the GI50 (COLO 205)?
**A.** 15 µM (inactive)

**Q.** What about the GI50 (UACC-257) of the same compound?
**A.** 13.9 µM (inactive)

**Q.** And the GI50 (U-251)?
**A.** 15.3 µM (inactive)

**Q.** What about the GI50 (SF-295) of the same compound?
**A.** 11.9 µM (inactive)

**Q.** And the GI50 (ACHN)?
**A.** 14.5 µM (inactive)

**Q.** And the GI50 (NCI-H522)?
**A.** 10.9 µM (inactive)

**Q.** What about the GI50 (OVCAR-4) of the same compound?
**A.** 22.9 µM (inactive)
